# Measurements published in US20230100193A1, “NOVEL PHARMACEUTICAL FORMULATIONS CONTAINING INDIRUBIN AND DERIVATIVES THEREOF AND METHODS OF MAKING AND USING THE SAME” (Cytodigm, Inc., priority 2017, published 2023).
# Test: Dissolution measurement after 30 minutes in 2% Tween 20 in PBS, HPLC of supernatant
# Format: physicochemical
# Conditions: after stirring for 30 minutes, centrifuged 14,000 rpm 15 min, HPLC 292 nm, 6-BIA 1.10 mg in 110 mL, nanoparticles approx. 1.32 mg/ml 6-BIA
# Procedure: As a control, dissolution of 6-BIA without polymer was first tested. 1.10 mg of 6-BIA was added to 110 mL of 2% Tween 20 in PBS. After stirring for 30 minutes, 1 mL of the resulting suspension was immediately collected to an Eppendorf tube. The Eppendorf tube was centrifuged at 14,000 rpm for 15 min.
# Encapsulated 6-BIA nanoparticles obtained in Example 4 were re-suspended in 2% Tween 20 in PBS to form a nanoparticle suspension containing approximately 1.32 mg/ml of 6-BIA in the nanoparticles. After stirring for 30 minutes, 1 mL of the resulting suspension was immediately collected to an Eppendorf tube. The Eppendorf tube was centrifuged at 14,000 rpm for 15 min.
smiles,measurement,value
"O=C1Nc2cc(Br)ccc2/C1=C1/Nc2ccccc2/C1=N\O [Example 6-BIA, 6-bromoindirubin-3′-oxime]",6-BIA concentration in supernatant (30-minute dissolution),3.89 µg/mL
